Source: patent US6841367B2, “Human receptor tyrosine kinase, KDR” (Merck & Co., Inc., priority 1997, dated 2005)

System: KDR
Experiment: Tyrosine autophosphorylation of KDRcyt mutants (antiphosphotyrosine Western blot)
Assay type: biochemical, human
Settings: 1 mM ATP, 37° C., 10 min; Western blot with antiphosphotyrosine antibody PY20 (FIG. 4A)
Method: Purified KDRcytE848 and KDRcytV848 were incubated with at concentrations of 12 ng or 120 ng, respectively, or without 1 mM ATP at 37° C. for 10 min. The reaction was stopped by the addition of an equal volume of 2× SDS-PAGE sample buffer and boiled for 5 min. Reaction products were separated by 7.5%/SDS-PAGE and analyzed by Western blot probed with the antiphosphotyrosine antibody PY20 (Transduction Laboratories; FIG. 4A), or an anti-KDR antibody (Santa Cruz Biotechnology; FIG. 4B) visualized using the ECL detection kit and quantified by scanning with a densitometer (Molecular Dynamics).

“GST-KDRcytV848: GST fusion of the human KDR cytoplasmic tyrosine kinase domain with Val at position 848 (SEQ ID NO:2)” was tested, and the autophosphorylation was “resulted in autophosphorylation”.
